Columns and labels:
Type in all cases: cell-based
Conditions in all cases: for FLCK RFU: green, ex 488 nm/em 535 nm; for FLCK RFU / SFCK RFU: average of 4 wells; for SFCK RFU: red, ex 590 nm/em 620 nm
Jurkat cells = assay: FLISP staining of Jurkat cells, fluorescence plate reader
Experimental: (§1) Preparation of reagents: Fluorescent inhibitors of serine proteases (FLISP) reagents, 5(6)-Carboxyfluoresceinyl-L-phenylalanylchloromethyl ketone (FFCK), 5(6)-carboxyfluoresceinyl-L-leucylchloromethyl ketone (FLCK), Sulforhodaminyl 101 -L-phenylalanylchloromethyl ketone (SFCK) and Sulforhodaminyl 101 -L-leucylchloromethyl ketone (SLCK) are dissolved initially in dimethyl sulfoxide (DMSO; Sigma) to yield a 10 mM concentration. Aliquots are made from this stock solution and stored frozen at −20° C. protected from light. The reagent stock of the FLCK is then diluted directly into the cell culture media to give a 1× working reagent concentration of 20 μM and the reagent stock of the SFCK is then diluted directly into the cell culture media to give a 1× working reagent concentration of 5 μM. Dilution of the reagent into aqueous (cell culture) media is done just prior to cell exposure to preserve the labile chloromethyl ketone reactivity of FLISP reagent.
(§2) Cells: Jurkat, HL-60 and U937 cells were obtained from American Type Culture Collection (ATCC; Rockville, Md.). They were cultured in 25 mL FALCON flasks (Becton Dickinson Co., Franklin Lakes, N.J.) using RPMI 1640 supplemented with 10% fetal calf serum, 100 units/mL penicillin, […] and 2 mM L-glutamine (all from Gibco/BRL Life Technologies, Inc., Grand Island, N.Y.) in a humidified incubator set to maintain 37.5° C. and 5 % CO2. At the onset of experiments, the cells were at an exponential and asynchronous growth phase with fewer than 5×10^5 cells per/mL in culture. To induce apoptosis the cells were treated with 0.15 μM DNA topoisomerase I inhibitor camptothecin (CPT; Sigma Chemical Co., St. Louis, Mo.) for 3 hours.
(§3) Cell staining and evaluation by fluorescence plate reader: The Jurkat, HL-60 and U937 cells from the untreated or CPT treated cultures were centrifuged (200 g, 5 min) and resuspended in PBS at approximately 10^6 cells per 5 ml volume. FLISP staining solutions were prepared by diluting 10 μL of a green 10 mM FLISP reagent stock solution (FLCK) and 2.5 μL of a red 10 mM FLISP reagent stock solution (SFCK) into 5 mL of culture medium yielding a final green FLISP concentration of 20 μM and a final red FLISP concentration of 5 μM. When detecting multiple serine proteases use different CMK labeled peptides i.e. FLCK and SFCK or FFCK and SLCK. The FLISP staining solution was removed by washing the cells in wash buffer (0.5% BSA in PBS +0.05% NaN3, pH 7.4) and centrifuging for 5 minutes at 200 g. The washing step was repeated two more times with fresh wash buffer. After the final wash the cells were resuspended in 5 mL wash buffer and 100 μL per were added to a 96 well black microtiter plate (4 wells were used for each sample). Green and red fluorescence were measured simultaneously on a Spectra MAX Gemini XS fluorescence plate reader (Molecular Devices). Green cell fluorescence (FLCK) was then measured using a 488 nm excitation, 535 nm emission with a 515 nm cutoff. Red cell fluorescence (SFCK) was then measured using a 590 nm excitation, 620 emission with a 610 nm cutoff.

HL-60 cells = assay: FLISP staining of HL-60 cells, fluorescence plate reader
Experimental: as §1, §2, §3

U937 cells = assay: FLISP staining of U937 cells, fluorescence plate reader
Experimental: as §1, §2, §3

Compound	FLCK RFU (Jurkat cells; Jurkat I (induced, apoptotic; 0.15 μM CPT 3 h), 20 μM) [RFU]	FLCK RFU (Jurkat cells; Jurkat NI (non-induced), 20 μM) [RFU]	FLCK Ratio of I/NI (Jurkat cells; Jurkat, induced/non-induced, 20 μM)	FLCK Ratio of I/NI (HL-60 cells; HL-60, induced/non-induced, 20 μM)	FLCK RFU (HL-60 cells; HL-60 I (induced, apoptotic; 0.15 μM CPT 3 h), 20 μM) [RFU]	FLCK RFU (HL-60 cells; HL-60 NI (non-induced), 20 μM) [RFU]	FLCK Ratio of I/NI (U937 cells; U937, induced/non-induced, 20 μM)	FLCK RFU (U937 cells; U937 I (induced, apoptotic; 0.15 μM CPT 3 h), 20 μM) [RFU]	FLCK RFU (U937 cells; U937 NI (non-induced), 20 μM) [RFU]	SFCK RFU (Jurkat cells; Jurkat I (induced, apoptotic; 0.15 μM CPT 3 h), 5 μM) [RFU]	SFCK RFU (Jurkat cells; Jurkat NI (non-induced), 5 μM) [RFU]	SFCK Ratio of I/NI (Jurkat cells; Jurkat, induced/non-induced, 5 μM)	SFCK Ratio of I/NI (HL-60 cells; HL-60, induced/non-induced, 5 μM)	SFCK RFU (HL-60 cells; HL-60 I (induced, apoptotic; 0.15 μM CPT 3 h), 5 μM) [RFU]	SFCK RFU (HL-60 cells; HL-60 NI (non-induced), 5 μM) [RFU]	SFCK Ratio of I/NI (U937 cells; U937, induced/non-induced, 5 μM)	SFCK RFU (U937 cells; U937 I (induced, apoptotic; 0.15 μM CPT 3 h), 5 μM) [RFU]	SFCK RFU (U937 cells; U937 NI (non-induced), 5 μM) [RFU]
5(6)-carboxyfluoresceinyl-L-leucylchloromethyl ketone [FLCK]	13.291	3.702	3.59	1.59	7.552	4.748	3.70	8.208	2.218	–	–	–	–	–	–	–	–	–
CCN(CC)c1ccc2c(-c3ccc(S(=O)(=O)NC(Cc4ccccc4)C(=O)CCl)cc3S(=O)(=O)[O-])c3ccc(=[N+](CC)CC)cc-3oc2c1 [SFCK, Sulforhodaminyl-L-phenylalanylchloromethyl ketone]	–	–	–	–	–	–	–	–	–	74.348	30.596	2.43	1.28	49.045	38.301	1.82	44.245	24.341
